Values quoted from earlier work in publication PMC10783014, “Structure-based virtual screening and in vitro validation of inhibitors of cyclic dinucleotide phosphodiesterases ENPP1 and CdnP” (Microbiology Spectrum, 2023).

System: CdnP
Conditions: cited from earlier work

SMILES | CdnP inhibition
COc1ccc([C@]2(C#N)CC[C@@H](C(=O)O)CC2)cc1OC1CCCC1 [cilomilast] | demonstrated CdnP inhibition
O=C1CCc2cc(OCCCCc3nnnn3C3CCCCC3)ccc2N1 [cilostazol] | demonstrated CdnP inhibition
CCCc1nn(C)c2c(=O)[nH]c(-c3cc(S(=O)(=O)N4CCN(C)CC4)ccc3OCC)nc12 [sildenafil] | demonstrated CdnP inhibition
CN1CC(=O)N2[C@H](c3ccc4c(c3)OCO4)c3[nH]c4ccccc4c3C[C@@H]2C1=O [tadalafil] | demonstrated CdnP inhibition
